Melting point data for 88 compounds are collected here from a melting point compilation (Tetko et al.; mined from patent text by program, amines drawn as free bases though some values may be those of a salt).

Usually melting point stands for the temperature, or range, at which the solid turns liquid.

With `O=C1O[C@@H](Cn2ccnn2)CN1c1ccc(-c2ccc(C3=NOC(CS(=O)(=O)CCc4ccncc4)C3)nc2)c(F)c1` (stereo partly drawn), the melting point was determined as 195 °C.
In the case of `CN(O)C(=O)c1ccc(CCCCc2ccccc2C(=O)O)cc1` it was 94 to 95 °C; in that of `O=C1c2ccccc2C(O)(c2ccc(Cl)cc2)N1Cc1ccc([N+](=O)[O-])cc1` (stereo not drawn), 197 to 200 °C; in that of `COC(=O)C1=Cc2ccc(OCc3nc(-c4ccccc4)oc3C)cc2CC1`, 130 to 131 °C.
In the case of `NC(=O)CCC(C(=O)O)N1C(=O)c2cccc([N+](=O)[O-])c2C1=O` (stereo not drawn) it was 182 to 184 °C; in that of `CC(=O)NC(C)c1ccc(CN2CCN(c3ccc(F)cc3)CC2)cc1` (stereo not drawn), 101 to 103 °C.
In the case of `Cc1nc(-c2ccc(Cl)cc2)nn1CCC=O` it was 108 to 109 °C; in that of `CCN(CC)C(=O)c1c(OC)ccc2cc(-c3ccc(OC)cc3)ccc12`, 118 to 120 °C; in that of `COc1cc(NC(=O)c2cccc(CCc3cc(Nc4ccccc4)n[nH]3)c2)cc(OC)c1OC`, 67 to 69 °C.
With `CCCn1c(=O)c2[nH]c(/C=C/c3cccs3)nc2n(CCC)c1=O`, the melting point amounted to 270 °C.
In the case of `CN(C)C1(c2ccccc2)CCC2(CC1)NCCc1c2[nH]c2ccc(-c3ccncc3)cc12` (stereo not drawn) it was 190 to 197 °C; in that of `NCC1CCN(c2nccc(C(N)=O)n2)CC1`, 144 to 148 °C.
In the case of `Nn1cccc1C(=O)c1cccs1` it was 81 to 82 °C.
In the case of `CCCCCCCCS(=O)(=O)c1ccc(CC(COC(C)=O)(COC(C)=O)NC(C)=O)cc1` it was 98 to 100 °C; in that of `CC(=O)SCCN1C(=O)c2ccccc2C1=O`, 112 to 114 °C; in that of `COC(=O)C(C)(C)OCc1cc2nc(Cl)ccc2n1S(=O)(=O)c1ccc(C(C)C)cc1`, 120 °C.
The compound `Nc1nc2[nH]c(CCC#Cc3ccc(C(=O)N[C@@H](CCC(=O)O)C(=O)O)o3)cc2c(=O)[nH]1` had a melting point of 193 to 194 °C.
In the case of `CN(CCO)Cc1cc(C(=O)c2cccs2)cc(C(C)(C)C)c1O`, the melting point was 98 to 100 °C.
In the case of `CCCCOc1nc(N)c2nc(OC)n(CCCBr)c2n1` it was 200 to 201 °C; in that of `O=C(OCC(=O)N1CCCCC1)c1ccc(O)cc1`, 160 to 164 °C; in that of `CCOC(=O)[C@H](CC(C)C)SC[C@H](O)[C@H](CC1CCCCC1)NC(=O)[C@H](Cc1c[nH]cn1)NC(=O)[C@H](Cc1ccccc1)NC(=O)OC(C)(C)C`, greater than 82 °C.
In the case of `C=CCNC(=O)NC(=O)c1c(Cl)cccc1[Si](C)(C)C` it was 68 to 71 °C; in that of `NC(=O)c1c(NC(=O)C2CC2)sc2c1CCC(F)(F)C2`, 207 to 208 °C.
In the case of `CCCCNc1nc(=O)c2c(C)nn3c2n1CC(C)=C3c1ccccc1` it was greater than 300 °C; in that of `N#Cc1ccc2c(c1)C1(COc3cc4c(cc31)OCCO4)C(=O)N2Cc1ccccn1` (stereo not drawn), 198 to 199 °C.
As for `NC(=O)N(O)Cc1ccc(OCc2csc(-c3ccccc3)n2)cc1`, the melting point is 161 to 164 °C.
In the case of `COC(=O)C(=O)c1ccc(C(=O)NCCOc2ccc3ccccc3c2)cc1` it was 114 to 115 °C; in that of `O=C(O)C(=O)c1ccc(OCCOc2cc3ccccc3c3ccccc23)cc1`, 179 to 180 °C.
`C=CCn1c(Oc2cnn(-c3c(Cl)cc(C(F)(F)F)cc3Cl)n2)nc(C#N)c1C#N` displayed a melting point of 121 to 131 °C.
For `CC(C(=O)O)c1ccc(CC2CCCC2=NO)cc1` (stereo not drawn), the melting point lay within 146 to 148 °C.
In the case of `CC(C)Oc1cc(-n2c(=O)cc(C(F)(F)F)n(C)c2=O)c(F)cc1Cl` it was 90 to 93 °C.
`Nc1scc2c1C(=O)c1c-2ccc(Cl)c1Cl`: the melting point is 254 to 255 °C.
For `CCOc1nn(-c2ccc(C(F)(F)F)cn2)cc1CCCO`, the melting point fell in the range of 85 to 86 °C.
In the case of `CCOC(=O)C(Cc1ccc(C(F)(F)F)cc1)C(=O)c1ccc(F)cc1F` (stereo not drawn) it was 34 to 35 °C; in that of `Cc1ccc(C=Cc2ccccc2)cc1`, 117 °C.
In the case of `O=c1nc(-c2ccccc2)c2cc([N+](=O)[O-])ccc2n1Cc1ccccn1` it was 175 to 176 °C; in that of `CCN1C[C@@H](O)[C@H](Oc2ccc(C(C)=O)cc2OC)C1` (relative stereo), 121 to 123 °C.
In the case of `Cc1cc(C)cc(Oc2cccc([N+](=O)[O-])n2)c1` it was 94 to 95 °C; in that of `CC(=S)NC[C@H]1CN(c2ccc(N3CCOCC3)c(F)c2)C(=O)O1`, 158 °C; in that of `CC(C)N1C(=O)N=C(SCc2ccccc2)NS1(=O)=O`, 124 to 130 °C.
In turn, `COC(=O)c1ccc(Br)c(C=O)c1` returned a melting point of 71 to 74 °C.
In the case of `CCC(=NO)c1ccc(OCCCCCCCc2cc(C)no2)cc1` it was 88 to 89 °C; in that of `CCc1cc2ccccc2c(CNC(=O)c2cc(OC)c(OC)c(OC)c2)n1`, 175 to 176 °C; in that of `CCCN(c1ccccc1)c1nc(=O)c2cccnc2s1`, 141 to 142 °C.
In the case of `COC(=O)C1=C(C)NC(C)=C(C(=O)OCCN2CCCC2=O)C1c1cccc([N+](=O)[O-])c1` (stereo not drawn) it was 112 to 114 °C.
In the case of `Cn1nc(-c2c(F)cccc2Cl)nc1-c1ccc(COc2ncc(Cl)cc2Cl)c(Cl)c1` it was 153 to 155 °C; in that of `Cn1nnnc1-c1cccc(CCl)c1`, 63 to 65 °C.
`Cc1ccc2c(c1)C=Cc1cc(C)ccc1C2c1cn(-c2ccnc(NCC(=O)O)n2)c(=O)[nH]c1=S`: the melting point is 205 °C.
The compound `CC(OC(=O)C1CC(=O)c2cc(F)ccc2O1)c1ccccc1` (single isomer, unassigned; (+)) had a melting point of 98 °C.
Compound `COc1c(C)cc(NC(=O)C(C)(C)C)cc1C` had a melting point of 126 to 128 °C.
In the case of `COc1cc2c(cc1OC)[C@@H]1C[C@H](NC(=O)OC(C)(C)C)[C@@H](N3C[C@H](CF)CC3=O)CN1CC2` it was greater than 300 °C; in that of `Nc1ncc(-c2ccccc2)nc1Sc1ccc(F)cc1`, 161 to 164 °C; in that of `CN(Cc1ccc(-c2ccc(OCc3nnn[nH]3)c(Br)c2)cc1)C(=O)c1cn(C)c2ccccc12`, 239 °C.
In the case of `COc1ccc(/C=C/c2c(Cl)cncc2Cl)c2cc(-c3ccncc3)oc12` it was 204 to 206 °C; in that of `C=CCOC(=O)C(C(=O)OCC=C)=C1SC(O)C(O)S1` (stereo not drawn), 81.2 °C.
In the case of `CC1(C)OC(=O)Nc2ccc(-c3cc(F)cc(-c4ccsc4)c3)cc21` it was 200 to 203 °C.
`COc1cc(OC)nc(SC2CCCC2CC(=O)O)n1` (stereo not drawn) returned a melting point of 125 to 127 °C.
In the case of `ON=Cc1c[nH]cc1-c1cccc(Cl)c1Cl` it was 158 to 160 °C; in that of `O=C(C(=C1NCCCS1)[N+](=O)[O-])c1ccc([N+](=O)[O-])cc1`, 158 to 160 °C.
In the case of `CCCCOC(=O)NCCC(=O)O` it was 50.5 °C; in that of `COc1cc(CC(=O)CCNCCOc2ccc(C(=O)O)cc2OC)ccc1NC(=O)Nc1ccccc1C`, 115 to 118 °C.
`Cc1ccc2c(c1)N(CC(=O)c1cccs1)C(=O)C(NC(=O)Nc1cccc(C(=O)O)c1)CN2C(=O)C(C)(C)C` (stereo not drawn) displayed a melting point of 198 to 206 °C.
In the case of `CCOC(=O)C(=CC=C(O)C(=O)O)Sc1ccccc1` it was 172 °C.
In the case of `Cc1cnc2c(c1)COP(=S)(N(C)C)O2` (stereo not drawn) it was 101 to 102 °C.
In the case of `CCCCC/C(=C\C=C\C(=O)O)c1cccc(F)c1` it was 84 to 85.5 °C; in that of `CC(=O)CCN1c2ccccc2NC(=O)C1C` (racemic), 108 to 109 °C.
Consider `C=CCCC(F)c1cccc(C2(c3ccc(OC(F)F)cc3)N=C(N)N(C)C2=O)c1` (stereo not drawn), for which the melting point fell in the range of 50 to 55 °C.
In the case of `CS(=O)(=S)OCCC(=O)O` (stereo not drawn) it was 44 to 46 °C.
In the case of `C#Cc1ccc2ccc(OC(CC)C(=O)NC(C)(C)CO)cc2c1` (stereo not drawn) it was 81 to 82 °C; in that of `CC1=NN(C)C(=O)C1(Cl)C(=O)c1cc(C)ccc1[N+](=O)[O-]` (stereo not drawn), 110 to 111 °C; in that of `CC(=O)Nc1nc2c(Oc3cc(N4CCN(C(C)c5ccc(F)cc5)CC4)ncn3)cccc2o1` (stereo not drawn), 200 °C.
In the case of `CCCCCCCCCCC[C@H](CC(=O)N[C@@H](CO)CCCN)OCc1ccccc1` it was 47 to 48 °C; in that of `COCCOc1nc(Nc2cccc(NS(C)(=O)=O)c2)nc2[nH]cnc12`, 201 to 204 °C; in that of `CCOC(=O)N1Cc2cc(=O)[nH]nc2C(C)C1` (stereo not drawn), 125 to 127 °C.
As to `CNC(=O)[C@@H](C[C@H](O)[C@H](CC1CCCCC1)NC(=O)[C@H](Cc1cscn1)NC(=O)OC(C)(C)C)C(C)(C)O`, the melting point was in the range of 203 to 205 °C.
In the case of `CCC(=O)N1Cc2ccccc2C2(Cc3ccc(Cl)cc3O2)C1` (stereo not drawn), the melting point was in the range of 106 to 107 °C.
In the case of `O=S1(=O)CCc2nn(-c3ccc(Cl)cc3)c(Br)c2C1` it was 138 to 145 °C; in that of `O=C(c1cccs1)c1cnn2c(-c3cccc(-c4nnn(CCN5CCOCC5)n4)c3)ccnc12`, 103 °C; in that of `O=S(=O)(Nc1ccc2ccc(OCc3ccc4ccccc4n3)cc2c1)C(F)(F)F`, 172 to 175 °C.
In the case of `N#Cc1cnc2cc3c(cc2c1Cl)ncn3CCN1CCOCC1` it was 205 to 207 °C.
`CN1CCC(OC2c3cccc(-c4cccc(N)c4)c3CCn3cc(-c4ccccc4)nc32)CC1` (stereo not drawn) gave a melting point of 120 °C.
In the case of `C=CCC1(C)OC(=O)Nc2ccc(-c3cccc(Cl)c3)cc21` (stereo not drawn) it was 128 to 129 °C; in that of `N#Cc1ccc(OCc2ccc3c(c2)OCO3)cc1F`, 139 to 140 °C.
In the case of `CC1(CN=[N+]=[N-])SC2C(NC(=O)Cc3ccccc3)C(=O)N2C1C(=O)OCC(Cl)(Cl)Cl` (stereo not drawn) it was 105 to 106 °C; in that of `Cc1ccc(Cc2cnc(CCCOc3cccc(CN4CCCCC4)c3)[nH]c2=O)cn1`, 137 to 138 °C.
In the case of `CN(C)C(=O)Nc1cccc(C#N)n1` it was 125 °C.
`CN1CCC(Sc2ccc3[nH]c(=O)n(C)c3c2)CC1` returned a melting point of 196 to 198 °C.
In the case of `CCN1CCCC1CNC(=O)c1nc(NC)sc1-c1ccncc1` (stereo not drawn) it was 76 to 78 °C.
